PMC4535312 (ChemMedChem, 2014)

Tests used:
[1] = tested on: A/Brisbane/10/2007 (H3N2); type: cell-based, influenza
influenza virus [2] = settings: in vivo; cited from earlier work
[3] = tested on: A/California/04/2009 (H1N1); type: cell-based, influenza
influenza virus [4] = settings: in vitro; cited from earlier work
A/Anhui/01/2013 (H7N9) = type: cell-based, influenza; settings: A549 cells, 10 μM for 1 hour before infection, 1 MOI H7N9, 24 hours post infection, titrated on MDCK cells

O=C(NCCN1CCC2(CC1)C(=O)NCN2c1cccc(F)c1)c1ccc2ccccc2c1 [compound 3]
viral reproduction (TCID50) [1]: significantly lowered viral reproduction | cellular toxicity in microscopic image (A549 cells): significant cellular toxicity | survival (influenza virus [2]): increased survival | viral titer (influenza virus [2]): reduced viral titer | viral reproduction (TCID50) [3]: significantly lowered viral reproduction | viral entry (influenza virus [4]): delayed viral entry | viral titers (influenza virus [4]): reduced viral titers | viral reproduction (TCID50) (A/Anhui/01/2013 (H7N9)): significantly lowered viral reproduction
